Test results reported in patent publication US9096581B2, “Fluoroethyl thiamine or salts thereof and application thereof in preparation of anticoccidial drugs” (GUANGZHOU ORIGMOL FEED-ADDITIVE CO., LTD, priority 2012, dated 2015).
Entries after “also recorded” stand apart in the source; their conditions may differ. Structures can show the parent of a compound that is named as a salt.

Legend:
[1] = tested on: Eimeria necatrix GD strains; assay: Anticoccidial effect on Eimeria necatrix in chickens (Embodiment 7); assay type: in vivo; settings: 125 ppm in feed; for average weight gain / number of oocysts in feces: 7th day after infecting; for survival rate: chickens; for relative decrement rate of oocysts: vs infected non-drug control; for relative weight gain rate: vs non-infected non-drug control
From the text: (§1) 1-day-old Lingnan yellow chickens, purchased from Poultry Research Unit, Bureau of Animal Husbandry, Guangdong Academy of Agricultural Sciences, bred under coccidium-free environment, and subjected to grouping and experiment after no coccidium oocyst is found in feces through microscopic examination when the chickens are 14 days old.
Eimeria necatrix GD strains, having no resistance to various anticoccidial drugs. Breeding and amplifying in chickens before the experiment, collecting fresh oocysts, sporulating, and preserving at 4° C. for later use.
(§2) Weighing the 14-day-old experiment chickens one by one, rejecting emaciated chickens or overweighted chickens, selecting healthy chickens of which the individual body weight difference is within 20 g, and dividing to 4 groups with 30 chickens in each group. Groups 1 and 2 are respectively a non-drug-applied and non-coccidium-killed control group and a coccidium-infected and non-drug-applied control group, and Groups 3 and 4 are added with fluoroethyl thiamine hydrochloride or amprolium according to Table 12. Feeding with feed containing different drugs on the day of experiment grouping, enabling the chickens to freely take in the feed, and feeding the chickens until the experiment ends.
(§3) Except the non-coccidium-infected and non-drug-applied control group, giving each experiment chicken in each experiment group with 1×10^5 eimeria necatrix sporulated oocysts via the crop on the next day of the grouping day. During experiment, observing and recording the spirit, appetite, bloody feces situation, death count and the like of the chickens every day. On the 7th day after infecting, respectively weighing each group, calculating the relative weight gain rate, simultaneously collecting feces samples, and counting the number of oocysts per gram of feces.
(§4) The anticoccidial effect evaluation is the same with Embodiment 5.

[2] = tested on: Eimeria maxima PY strains; assay: Anticoccidial effect on Eimeria maxima in chickens (Embodiment 6); assay type: in vivo; settings: 125 ppm in feed; for average weight gain / number of oocysts in feces: 7th day after infecting; for survival rate: chickens; for relative decrement rate of oocysts: vs infected non-drug control; for relative weight gain rate: vs non-infected non-drug control
From the text: as §1
Eimeria maxima PY strains, having no resistance to various anticoccidial drugs. Breeding and amplifying in chickens before the experiment, collecting fresh oocysts, sporulating, and preserving at 4° C. for later use.
as §2, with “10.” for “12.”, “in” for “in the”
as §3, with “3×10^5” for “1×10^5”, “maxima” for “necatrix”
as §4

SMILES	average weight gain [1]	number of oocysts in feces [1]	survival rate [1]	inhibition of eimeria necatrix, in words ([1]; hydrochloride)	relative decrement rate of oocysts [1]	relative weight gain rate [1]	average weight gain [2]	number of oocysts in feces [2]	survival rate [2]	inhibition of eimeria maxima, in words ([2]; hydrochloride)	relative decrement rate of oocysts [2]	relative weight gain rate [2]
CCc1ncc(C[n+]2csc(CCF)c2C)c(N)n1 [fluoroethyl thiamine hydrochloride, 3-[(4-amino-2-ethyl-5-pyrimidyl)-methylene]-5-(2-fluoroethyl)-4-methyl thiazole chloride hydrochloride]	172.5 g	1900 g⁻¹	100%	can effectively control infection of the eimeria necatrix; also recorded: superior to amprolium in eimeria necatrix inhibition	85.9%	92.9%	176.3 g	3700 g⁻¹	100%	significant inhibition effect on eimeria maxima; also recorded: superior to amprolium in eimeria maxima inhibition	91.2%	98.0%
CCCc1ncc(C[n+]2ccccc2C)c(N)n1 [amprolium, Amprolium, reference compound]	159.9 g	3600 g⁻¹	100%		73.3%	86.2%	167.4 g	8600 g⁻¹	100%		79.5%	93.1%
